The values that follow come from article PMC12799421, “Inhibition of constitutive activity of the atypical chemokine receptor 3 by the small-molecule inverse agonist VUF16840” (Molecular Pharmacology, 2025).

The experiment has as its system D3-ACKR3+ cells. Briefly: CXCL12 uptake in ACKR3-overexpressing hCMEC/D3 cells. It is filed as cell-based, human. From the text:
Human CMEC (D3) cells (CVCL_U985) stably overexpressing ACKR3 and empty vector control were generated by retroviral transductions. The lentiviral expression vector encoding the human ACKR3 was created by cloning the ACKR3 gene (NM_020311.3 from GenScript) in the restriction sites Nhe1/Sma1 of the pLV-LifeAct (a kind gift of Dr Niels Heemskerk). Lentiviral particles were packaged in HEK293T cells, cultured in Dulbecco’s modified Eagle’s medium containing 10% fetal calf serum, 1% penicillin/streptomycin (ThermoFisher Scientific) at 37 °C in a 5% CO2 incubator. Lentiviral expression and packaging vectors were introduced using calcium phosphate transfection. […] Supernatant was taken off, cells were washed 1× with medium and CXCL12-A647 signal in cells was measured using a BioTek Cytation microplate reader (Agilent). […]
The sigmoidal concentration-dependent displacement of binding of the probes [^3H]VUF15485 and CXCL12-A647 by unlabeled ligands were analyzed using GraphPad Prism 8, by fitting a one-site binding model to the data, to determine the pIC50. Mean pIC50 values were determined by averaging fitted values from individual experiments. […] Mean pEC50 values and pIC50 values were determined by averaging fitted values from individual experiments. […]

For the molecule `COc1ccccc1CCNC(=O)C1CN(C2CCCCC2)CCC1NC(=O)c1cc(-c2ccc(F)cc2F)on1` (centres unmarked) [VUF16840], the “CXCL12-AF647 uptake (mean fluorescent intensity)” value (3 nM CXCL12-AF647 60 minutes, 1, 10 or 100 nM VUF16840) is reported as “concentration-dependent inhibition”. Also, the “uptake of CXCL12-AF647 (confocal microscopy)” value (3 nM CXCL12-AF647, 100 nM VUF16840) was “abolished”.
